The compounds below were run on PC12 cells (assay: PC12 cell survival under serum deprivation (CellTiter-Glo)). Conditions: 72 h serum-free; NS = RLU increased <25% at 5 uM.
Type: cell-based, rat
Procedure: Each culture condition was performed in quadruplicate in each experiment and the mean values were calculated. The results represent mean±SEM of relative light unit values when compared to the mean values obtained in the presence of the medium alone. A total of 13 experiments were performed and the statistical significance was analyzed using GraphPad Prism software using ANOVA, followed by paired t-test. The symbol * indicates P-values <0.01.
PC12 cells were cultured in DMEM supplemented with 10% fetal calf serum and 5% horse serum. […] Cell viability was analyzed by CellTiter-Glo® reagent (Promega).
PC12 cells were cultured in DMEM supplemented with 10% fetal calf serum and 5% horse serum. […] Cell survival of the serum-starved cells was analyzed by CellTiter-Glo® reagent luminescence reading.
FIG. 2 illustrates neuroprotective effects of Compounds 1-5 when tested in PC12 cell protection assays. PC12 cells were subjected to serum deprivation as described under FIG. 1.
PC12 cells were cultured in DMEM supplemented with 10% fetal calf serum and 5% horse serum. […] Cell survival of the serum-starved cells was analyzed by CellTiter-Glo® reagent luminescence reading (relative light units, “RLU”). […] “NS” indicates RLU increased <25% when compounds were tested at 5 uM.
With `Cc1cc(C)n2nc(SCCOc3ccc(F)c(Cl)c3)nc2n1` [Example 6] the “PC12 cell proliferation (CellTiter-Glo ®) Concentration at which RLU increased >25% compared to medium control” value was <5 µM. In the case of `Cc1cc(C)n2nc(SCCOc3ccncc3)nc2n1` [Example 31, 4-[2-({5,7-dimethyl-[1,2,4]triazolo[1,5-a]pyrimidin-2-yl}sulfanyl)ethoxy]pyridine], the “PC12 cell proliferation (CellTiter-Glo ®) Concentration at which RLU increased >25% compared to medium control” value is reported as “NS (RLU increased <25% when compounds were tested at 5 uM)”. In the case of `Cc1cc(C)n2nc(SCCOc3ccc(CCN(C)C)cc3)nc2n1` [Example 32, (2-{4-[2-({5,7-dimethyl-[1,2,4]triazolo[1,5-a]pyrimidin-2-yl}sulfanyl)ethoxy]phenyl}ethyl)-dimethylamine], the “PC12 cell proliferation (CellTiter-Glo ®) Concentration at which RLU increased >25% compared to medium control” value is reported as “NS (RLU increased <25% when compounds were tested at 5 uM)”. In the case of `Cc1cc(C)n2nc(SCCOC3CCCCC3)nc2n1` [Example 33, 2-{[2-(cyclohexyloxy)ethyl]sulfanyl}-5,7-dimethyl-[1,2,4]triazolo[1,5-a]pyrimidine], the “PC12 cell proliferation (CellTiter-Glo ®) Concentration at which RLU increased >25% compared to medium control” value is reported as “NS (RLU increased <25% when compounds were tested at 5 uM)”.

Same assay, conditions: Rattus norvegicus, PC-12; 72 h serum-free; NS = RLU increased <25% at 5 uM; read-out: PC12 cell proliferation (CellTiter-Glo ®) Concentration at which RLU increased >25% compared to medium control
With `Cc1cc(C)n2nc(SCCOc3ccccc3)nc2n1` [Example 2, 5,7-dimethyl-2-[(2-phenoxyethyl)sulfanyl]-[1,2,4]-triazolo[1,5-a]pyrimidine] the minimal effective concentration was < 5 µM. With `Cc1cc(C)n2nc(SCCOc3ccc(F)cc3)nc2n1` [Example 3, 2-{[2-(4-fluorophenoxy)ethyl]sulfanyl}-5,7-dimethyl-[1,2,4]triazolo[1,5-a]pyrimidine] the minimal effective concentration was < 5 µM. `Cc1cc(C)n2nc(SCCOc3ccc(Cl)c(F)c3)nc2n1` [Example 4, 2-{[2-(4-chloro-3-fluorophenoxy)ethyl]sulfanyl}-5,7-dimethyl-[1,2,4]triazolo[1,5-a]pyrimidine] was tested, and the minimal effective concentration was < 5 µM. `Cc1cc(C)n2nc(SCCOc3ccc(Cl)c(Cl)c3)nc2n1` [Example 5, 2-{[2-(3,4-dichlorophenoxy)ethyl]sulfanyl}-5,7-dimethyl-[1,2,4]-triazolo[1,5-a]pyrimidine] was tested, and the minimal effective concentration was < 5 µM. For `Cc1cc(C)n2nc(SCCOc3ccc(F)c(F)c3)nc2n1` [Example 7, 2-{[2-(3,4-difluorophenoxy)ethyl]sulfanyl}-5,7-dimethyl-[1,2,4]triazolo[1,5-a]pyrimidine], the minimal effective concentration was < 5 µM. In the case of `CCc1ccc(OCCSc2nc3nc(C)cc(C)n3n2)cc1` [Example 8, 2-{[2-(4-ethylphenoxy)ethyl]sulfanyl}-5,7-dimethyl-[1,2,4]triazolo[1,5-a]pyrimidine], the minimal effective concentration is reported as < 5 µM. `Cc1cc(C)n2nc(SCCN(CCO)c3ccccc3)nc2n1` [Example 9, 2-{[2-({5,7-Dimethyl-[1,2,4]triazolo[1,5-a]pyrimidin-2-yl}sulfanyl)ethyl](phenyl)amino}ethan-1-ol] was tested, and the minimal effective concentration was < 5 µM. In the case of `Cc1cc(C)n2nc(OCCCC3CCCC3)nc2n1` [Example 12, 2-(3-cyclopentylpropoxy)-5,7-dimethyl-[1,2,4]-triazolo[1,5-a]pyrimidine], the minimal effective concentration is reported as < 5 µM. In the case of `CCc1cc(CC)n2nc(OCCN(CCO)c3ccc(F)cc3)nc2n1` [Example 14, 2-{[2-({5,7-diethyl-[1,2,4]triazolo[1,5-a]pyrimidin-2-yl}oxy)ethyl](4-fluorophenyl)amino}ethan-1-ol], the minimal effective concentration is reported as < 5 µM. For `CCc1cc(CC)n2nc(OCCOc3ccc(F)cc3)nc2n1` [Example 15, 5,7-diethyl-2-[2-(4-fluorophenoxy)ethoxy]-[1,2,4]triazolo[1,5-a]pyrimidine], the minimal effective concentration was < 5 µM. With `CCc1cc(CC)n2nc(OCCOc3ccc(Cl)cc3)nc2n1` [Example 16, 5,7-diethyl-2-[-2-(4-chlorophenoxy)ethoxy]-[1,2,4]triazolo[1,5-a]pyrimidine] the minimal effective concentration was < 5 µM. For `CCc1cc(CC)n2nc(OCCN(CCO)c3ccccc3)nc2n1` [Example 17, 2-{[2-({5,7-Diethyl-[1,2,4]triazolo[1,5-a]pyrimidin-2-yl}oxy)ethyl](phenyl)amino}ethan-1-ol], the minimal effective concentration was < 5 µM. For `CCc1cc(CC)n2nc(NCCOc3ccccc3)nc2n1` [Example 18, 5,7-diethyl-N-(2-phenoxyethyl)-[1,2,4]triazolo[1,5-a]pyrimidin-2-amine], the minimal effective concentration was < 5 µM. With `Cc1cc(C)n2nc(NCCOc3ccc(Cl)cc3)nc2n1` [Example 19, N-[2-(4-chlorophenoxy)ethyl]-5,7-dimethyl-[1,2,4]triazolo[1,5-a]pyrimidin-2-amine] the minimal effective concentration was < 5 µM. With `CCc1cc(CC)n2nc(CCCN(CCO)c3ccc(F)cc3)nc2n1` [Example 20, 2-[(3-{5,7-diethyl-[1,2,4]triazolo[1,5-a]pyrimidin-2-yl}propyl)(4-fluorophenyl)amino]ethan-1-ol] the minimal effective concentration was < 5 µM. `CCc1cc(CC)n2nc(CCCN(CCOC(C)=O)c3ccc(F)cc3)nc2n1` [Example 21, 2-[(3-{5,7-diethyl-[1,2,4]triazolo[1,5-a]pyrimidin-2-yl}propyl)(4-fluorophenyl)amino]ethyl acetate] was tested, and the minimal effective concentration was < 5 µM. `Cc1cc(C(F)(F)F)n2nc(CCCOc3ccc(Cl)cc3)nc2n1` [Example 22, 2-[3-(4-chlorophenoxy)propyl]-5-methyl-7-(trifluoromethyl)-[1,2,4]triazolo[1,5-a]pyrimidine] was tested, and the minimal effective concentration was < 5 µM. For `Cc1cc(C(F)(F)F)n2nc(SCCOc3ccc(Cl)cc3)nc2n1` [Example 23, 2-{[2-(4-chlorophenoxy)ethyl]sulfanyl}-5-methyl-7-(trifluoromethyl)-[1,2,4]-triazolo[1,5-a]pyrimidine], the minimal effective concentration was < 5 µM. For `FC(F)(F)c1cc(C(F)(F)F)n2nc(SCCOc3ccc(Cl)cc3)nc2n1` [Example 24, 2-{[2-(4-chlorophenoxy)ethyl]sulfanyl}-5,7-bis(trifluoromethyl)-[1,2,4]-triazolo[1,5-a]pyrimidine], the minimal effective concentration was < 5 µM. `Clc1ccc(OCCSc2nc3ncccn3n2)cc1` [Example 25, 2-{[2-(4-chlorophenoxy)ethyl]sulfanyl}-[1,2,4]-triazolo[1,5-a]pyrimidine] was tested, and the minimal effective concentration was < 5 µM. `Cc1ccn2nc(SCCOc3ccc(Cl)cc3)nc2n1` [Example 26, 2-{[2-(4-chlorophenoxy)ethyl]sulfanyl}-5-methyl-[1,2,4]triazolo[1,5-a]pyrimidine] was tested, and the minimal effective concentration was < 5 µM. In the case of `Cc1ccnc2nc(SCCOc3ccc(Cl)cc3)nn12` [Example 27, 2-{[2-(4-chlorophenoxy)ethyl]sulfanyl}-7-methyl-[1,2,4]-triazolo[1,5-a]pyrimidine], the minimal effective concentration is reported as < 5 µM. With `CC(C)c1cc(C(C)C)n2nc(CCCOc3ccc(F)cc3)nc2n1` [Example 29, 2-[3-(4-fluorophenoxy)propyl]-5,7-bis(propan-2-yl)-[1,2,4]triazolo[1,5-a]pyrimidine] the minimal effective concentration was < 5 µM. With `Fc1ccc(OCCCc2nc3nc(C(F)F)cc(C(F)F)n3n2)cc1` [Example 30, 5,7-bis(difluoromethyl)-2-[3-(4-fluorophenoxy)propyl]-[1,2,4]triazolo[1,5-a]pyrimidine] the minimal effective concentration was < 5 µM. `Cc1cc(C)n2nc(SCCc3c[nH]c4ccccc34)nc2n1` [Example 34, 3-[2-({5,7-dimethyl-[1,2,4]triazolo[1,5-a]pyrimidin-2-yl}sulfanyl)ethyl]-1H-indole] was tested, and the minimal effective concentration was < 5 µM. `Cc1cc(C)n2nc(OCCSc3ccc(Cl)cc3)nc2n1` [Example 35, 2-{2-[(4-chlorophenyl)sulfanyl]ethoxy}-5,7-dimethyl-[1,2,4]triazolo[1,5-a]pyrimidine] was tested, and the minimal effective concentration was < 5 µM.
